{"source": "patent US20260055118A1", "about": "“VISIBLE LIGHT SENSITIVE PHOTOREMOVABLE PROTECTING GROUPS, PREPARATION PROCESS THEREOF, PHOTOACTIVATABLE CONJUGATES COMPRISING THEM AND USES THEREOF” (HUN-REN TERMÉSZETTUDOMÁNYI KUTATÓKÖZPONT, priority 2022, published 2026)", "key": {"[1]": {"tested_on": "SK-OV-3 cells", "test": "Cytotoxicity determination, MTT assay, with light irradiation and in the dark", "type": "cell-based, human", "procedure": "A viability test was carried out to assess the toxicity of SN38 as well as the photoremovable protecting group-SN38 conjugates X1′-SN38 and X2′-SN38 after light irradiation and in the dark on SKOV3 cells. Cells were transferred into a 48-well plate (Thermo Fisher Scientific, 130187) (4,500 cells/well) and incubated for 20-24 h at 37° C. in a 5% CO2 atmosphere in McCoy's 5A (Modified) Medium, HEPES (Gibco 22330021) supplemented with 10% FBS (Gibco 10500-064), 1% penicillin-streptomycin (Gibco 15140-122). Cells were treated with compounds in the concentration range of 10^−11-10^−4 M for 90 min followed by light irradiation or kept in the dark at 37° C. in 5% CO2 atmosphere. After treatment and irradiation, cells were kept at 37° C. in 5% CO2 atmosphere for 72 hours. After the incubation period, supernatants were replaced with 0.5 mg/ml MTT (3-(4,5-dimethylthiazol-2-yl)-2,5-diphenyltetrazolium bromide; Sigma M5655-1G) solution (in complete DMEM: Dulbecco's modified Eagle's medium (DMEM, Gibco 41965-039), supplemented with 10% FBS (Gibco 10500-064), 1% penicillin-streptomycin (Gibco 15140-122), 1% Glutamax (Gibco 35050-061) and 1% sodium pyruvate (Life Technologies, Gibco 11360-070)) and incubated for 120 min at 37° C. in the dark. The insoluble formazan crystals were dissolved in 250 μl DMSO. Absorbance was detected at 540 nm using a Biotek Synergy 2 Cytation 3 imaging plate reader with Gen5 software version 3.08 (Biotek Winooski, VT, USA). Viability was expressed as percentage (n=3) of the readings of untreated control cells.\nTo determine phototoxic properties of compounds X1′-SN38 and X2′-SN38, standard MTT assays were performed on SK—OV-3 cells. To irradiate multiple specimens, an LED panel was custom-made for a 48-well plate consisting of 24 LEDs using green (4 W input power, λmax=549 nm half-width: 16 nm, output power: 72 mW), orange (4 W input power, λmax=605 nm half-width: 10 nm, output power: 140 mW) and red (4 W input power, λmax=658 nm half-width: 10 nm, for Q=CMe2 output power: 210 mW) LED irradiation. The board was specifically designed for the plates and offer water cooling to minimize heat shock to cells. Every second well can be irradiated with an individual LED. First, the cytotoxicity of the free active agent, SN38 was determined to be EC50 ^˜6 nM. Treatment of cells with the photoactivatable SN38 derivatives for 72 hours in the absence of light (without washing) produced moderate cytotoxic effects, sigificantly lowering the effectiveness of the active agent. This confirms that SN38 is a suitable candidate for light-activated prodrug applications. […] Reducing the irradiation time down to 10 s still produced significant phototoxicity in higher concentrations (see FIG. 8a for compound X2′-SN38) even assuming incomplete uncaging as a result of the substantial dark stability of compound X2′-SN38."}, "[2]": {"test": "Spectroscopic properties of the target conjugates in PBS", "type": "physicochemical", "procedure": "All starting materials were obtained from commercial suppliers and used without further purification. Analytical thin-layer chromatography (TLC) was performed on silica gel 60 F254 precoated aluminum TLC plates from Merck. Flash column chromatography was performed on Teledyne Isco CombiFlash® Rf+ automated flash chromatographer with silica gel (25-40 μm) from Zeochem. NMR spectra were recorded on a Varian Inova 500 MHz spectrometer. Chemical shifts (δ) are given in parts per million (ppm) using solvent signals or TMS as the reference. Coupling constants (J) are reported in Hertz (Hz). Analytical RP-HPLC-UV/Vis-MS measurements were employed using a Shimadzu LCMS-2020 instrument applying a Gemini C18 column (100×2.00 mm I.D.) in which the stationary phase is […] with a pore size of 110 Å. The chromatograms were detected by a UV-Vis diode array (190-800 nm) and an ESI-MS detector. The following linear gradient elution profile was applied, 0 min 0% B; 6.5 min 100% B; 7 min 0% B; 8 min. 0% B) with eluent A (2% HCOOH, 5% MeCN and 93% water) and B (2% HCOOH, 80% MeCN and 18% water) at a flow rate of 1.0 mL min-1 at 30° C. The samples were dissolved in MeCN—water mixtures. Spectroscopic measurements were performed on a Jasco FP 8300 spectrofluorometer. Quartz cuvettes with path length of 1 cm were used.\nThe spectroscopic properties of the target conjugates were determined in PBS. […] Compounds with Q=O have absorption bands in the green-yellow region while Q=CMe2 derivatives absorb in the red (up to 700 nm). All of the compounds have moderate to high absorption coefficients and significant fluorescence. The spectroscopic details can be found in Table 1. In the table, λmax means absorption maximum; λem means fluorescence emission maximum; s means molar absorption coefficient (at the absorption maximum)."}}, "note": "pEC50: −log10 of the molar value. Where two headings read alike, the source gives them in different places."}
{"compound": "CCc1c2c(nc3ccc(OC(=O)N(C)CCN(C)C(=O)OC(C)c4c5ccc(=[N+]6CCCC6)cc-5oc5cc(N6CCCC6)ccc45)cc13)-c1cc3c(c(=O)n1C2)COC(=O)C3(O)CC.[I-]", "note": "(mixture of isomers) [X1′-SN38]", "values": [{"measurement": "pEC50", "setting": "[1]; dark, (green) series, read-out: Dark EC50 values", "result": 5.40}, {"measurement": "pEC50", "setting": "[1]; dark, (orange) series, read-out: Dark EC50 values", "result": 5.96}, {"measurement": "pEC50", "setting": "[1]; green light irradiation, 15 min, read-out: EC50 values after irradiation", "result": 7.20}, {"measurement": "Photoindex", "setting": "[1]; green light, 15 min", "result": 64}, {"measurement": "Photoindex", "setting": "[1]; orange light, 5 min", "result": 45}, {"measurement": "pEC50", "setting": "[1]; orange light, 5 min, read-out: EC50 values after irradiation", "result": 7.64}, {"measurement": "λem (fluorescence emission maximum)", "setting": "[2]", "result": 594, "unit": "nm"}, {"measurement": "λmax (absorption maximum)", "setting": "[2]", "result": 575, "unit": "nm"}, {"measurement": "ε (molar absorption coefficient)", "setting": "[2]; at the absorption maximum", "result": "61 200 M^−1cm^−1"}]}
